{"source": "patent US20210024507A1", "about": "“Compounds” (Step Pharma S.A.S., priority 2018, published 2021)"}
{"target": "T1, human CTPS1 (Homo sapiens, UniProt P17812)", "T1 construct": "purchased Proteros biostructures GmbH", "T1 sequence (P17812 1-591)": "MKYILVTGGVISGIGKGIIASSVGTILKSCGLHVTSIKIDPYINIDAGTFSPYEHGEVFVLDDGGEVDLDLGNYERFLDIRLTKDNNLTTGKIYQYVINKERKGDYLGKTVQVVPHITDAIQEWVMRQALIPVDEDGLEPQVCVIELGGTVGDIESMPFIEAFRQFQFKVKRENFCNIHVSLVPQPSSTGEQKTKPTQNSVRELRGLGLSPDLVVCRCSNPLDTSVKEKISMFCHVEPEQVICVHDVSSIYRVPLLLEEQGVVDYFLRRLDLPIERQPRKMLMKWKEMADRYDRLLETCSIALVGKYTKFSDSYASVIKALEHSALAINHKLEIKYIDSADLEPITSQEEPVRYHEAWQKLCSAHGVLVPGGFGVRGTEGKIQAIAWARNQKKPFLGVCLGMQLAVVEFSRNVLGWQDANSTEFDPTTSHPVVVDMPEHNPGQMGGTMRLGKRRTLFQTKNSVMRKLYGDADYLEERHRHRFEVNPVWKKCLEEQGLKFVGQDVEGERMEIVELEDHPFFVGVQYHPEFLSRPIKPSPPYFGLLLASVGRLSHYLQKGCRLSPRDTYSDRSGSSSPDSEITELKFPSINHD", "experiment": "Human CTPS1 enzyme inhibition (ADP-Glo Max assay)", "format": "biochemical", "details": "human full length CTPS1, 25° C., read-out: CTPS1 (Human CTPS1 Enzyme Inhibition, IC50 grouped by potency range)", "description": "The enzyme inhibitory activities of compounds invented against the target of interest were determined using the ADP-GIoTM Max assay (Promega, UK). Assays for human CTPS1 were performed in lx assay buffer containing 50mM Tris, 10mM MgCl2, 0.01% Tween-20, pH to 8.0 accordingly. Finally, immediately before use, L-cysteine was added to the lx assay buffer to a final concentration of 2mM. All reagents are from Sigma-Aldrich unless specified otherwise. Human full length active C-terminal FLAG-Hiss-tag CTPS1 (UniProtKB - P17812, CTPS[1-591]-[…]) was obtained from Proteros biostructures GmbH.\nAssay Procedure 3× human CTPS1 protein was prepared in lx assay buffer to the final working protein concentration required for the reaction. A 2uL volume per well of 3x human CTPS1 protein was mixed with 2uL per well of 3× test compound (compound prepared in lx assay buffer to an appropriate final 3× compound concentration respective to the concentration response curve designed for the compounds under test) for 10 minutes at 25° C. The enzymatic reaction was then initiated by addition of a 2uL per well volume of a pre-mixed substrate mix (UltraPure ATP from ADP-GIo™ Max kit (0.31mM), GTP (0.034mM), UTP (0.48mM) and L-glutamine (0.186mM)) and the mixture was incubated for an appropriate amount of time within the determined linear phase of the reaction at 25° C. under sealed plate conditions with constant agitation at 500 revolutions per minute (rpm). ADP-GIo™ Max reagent was added for 60 minutes ([…] per well) and subsequently ADP-GIo™ Max development reagent was added for 60 minutes (12uL per well) prior to signal detection in a microplate reader (EnVision® Multilabel Reader, Perkin Elmer). Following each reagent addition over the course of the assay, assay plates were pulse centrifuged for 30 seconds at 500rpm.\nIn all cases, the enzyme converts ATP to ADP and the ADP-GIo™ Max reagent subsequently depletes any remaining endogenous ATP in the reaction system. The ADP-GIo™ Max detection reagent converts the ADP that has been enzymatically produced back into ATP and using ATP as a substrate together with luciferin for the enzyme luciferase, light is generated which produces a detectable luminescence. […] The percentage inhibition produced by each concentration of compound was calculated using the equation shown below: […]\nPercentage inhibition was then plotted against compound concentration, and the 50% inhibitory concentration (IC50) was determined from the resultant concentration-response curve.", "units": {"IC50": "nM"}}
{"smiles": "CCOc1cncc(-c2ccc(NC(=O)C(CC)c3nccc(NS(=O)(=O)C4CC4)n3)nc2)n1", "note": "(stereo not drawn) [P208, 2-(4-(cyclopropanesulfonamido)pyrimidin-2-yl)-N-(5-(6-ethoxypyrazin-2-yl)pyridin-2-yl)butanamide]", "IC50": "≤ 100"}
{"smiles": "CCOc1cncc(-c2ccc(C(=O)NC(CC)c3ccnc(NS(=O)(=O)C4CC4)n3)nc2)n1", "note": "(stereo not drawn) [P210, N-(1-(2-(cyclopropanesulfonamido)pyrimidin-4-yl)propyl)-5-(6-ethoxypyrazin-2-yl)picolinamide]", "IC50": "100 to 1000"}
{"smiles": "CCC(NC(=O)c1ccc(-c2cncc(C(F)(F)F)c2)cc1F)c1ccnc(NS(=O)(=O)C2CC2)n1", "note": "(stereo not drawn) [P211, N-(1-(2-(cyclopropanesulfonamido)pyrimidin-4-yl)propyl)-2-fluoro-4-(5-(trifluoromethyl)pyridin-3-yl)benzamide]", "IC50": "100 to 1000"}
{"smiles": "CCC(NC(=O)c1ccc(-c2cncc(Cl)c2)cc1F)c1ccnc(NS(=O)(=O)C2CC2)n1", "note": "(stereo not drawn) [P212, 4-(5-chloropyridin-3-yl)-N-(1-(2-(cyclopropanesulfonamido)pyrimidin-4-yl)propyl)-2-fluorobenzamide]", "IC50": "100 to 1000"}
{"smiles": "CCC(NC(=O)c1ccc(-c2cncc(C(F)(F)F)c2)cc1)c1ccnc(NS(=O)(=O)C2CC2)n1", "note": "(stereo not drawn) [P213, N-(1-(2-(cyclopropanesulfonamido)pyrimidin-4-yl)propyl)-4-(5-(trifluoromethyl)pyridin-3-yl)benzamide]", "IC50": "100 to 1000"}
{"smiles": "CCC(NC(=O)c1ccc(-c2cncc(Cl)c2)cc1)c1ccnc(NS(=O)(=O)C2CC2)n1", "note": "(stereo not drawn) [P214, 4-(5-chloropyridin-3-yl)-N-(1-(2-(cyclopropanesulfonamido)pyrimidin-4-yl)propyl)benzamide]", "IC50": "100 to 1000"}
{"smiles": "CCOc1cncc(-c2ccc(C(=O)NC(CC)c3ccnc(NS(=O)(=O)C4CC4)n3)c(C(F)(F)F)c2)n1", "note": "(stereo not drawn) [P215, N-(1-(2-(cyclopropanesulfonamido)pyrimidin-4-yl)propyl)-4-(6-ethoxypyrazin-2-yl)-2-(trifluoromethyl)benzamide]", "IC50": "100 to 1000"}
{"smiles": "CCC(NC(=O)c1ccc(-c2cncc(C(F)(F)F)n2)cc1)c1ccnc(NS(=O)(=O)C2CC2)n1", "note": "(stereo not drawn) [P217, N-(1-(2-(cyclopropanesulfonamido)pyrimidin-4-yl)propyl)-4-(6-(trifluoromethyl)pyrazin-2-yl)benzamide]", "IC50": "100 to 1000"}
{"smiles": "CCC(NC(=O)c1ccc(-c2cncc(OC(C)C)n2)cc1)c1ccnc(NS(=O)(=O)C2CC2)n1", "note": "(stereo not drawn) [P218, N-(1-(2-(cyclopropanesulfonamido)pyrimidin-4-yl)propyl)-4-(6-isopropoxypyrazin-2-yl)benzamide]", "IC50": "≤ 100"}
{"smiles": "CCOc1cncc(-c2ccc(C(=O)NC(CC)c3ccnc(NS(=O)(=O)C4CC4)n3)cc2)n1", "note": "(stereo not drawn) [P219, N-(1-(2-(cyclopropanesulfonamido)pyrimidin-4-yl)propyl)-4-(6-ethoxypyrazin-2-yl)benzamide]", "IC50": "100 to 1000"}
{"smiles": "CCOc1cncc(-c2ccc(C(=O)NC(C)(CC)c3ccnc(NS(=O)(=O)C4CC4)n3)c(F)c2)n1", "note": "(stereo not drawn) [P220, N-(2-(2-(cyclopropanesulfonamido)pyrimidin-4-yl)butan-2-yl)-4-(6-ethoxypyrazin-2-yl)-2-fluorobenzamide]", "IC50": "100 to 1000"}
{"smiles": "CCOc1cncc(-c2ccc(C(=O)NC(CC)c3cncc(NS(=O)(=O)C4CC4)n3)c(F)c2)n1", "note": "(stereo not drawn) [P223, N-(1-(6-(cyclopropanesulfonamido)pyrazin-2-yl)propyl)-4-(6-ethoxypyrazin-2-yl)-2-fluorobenzamide]", "IC50": "100 to 1000"}
